According to patent US20050064412A1, “Method of evaluating degree of canceration of mammal-origin specimen” (priority 2001, published 2005):

Legend:
Type in all cases: cell-based, human
3OST2 gene [1] = experiment: Methylation-specific PCR of 3OST2 gene after culture with methylation inhibitor (MCF-7); conditions: breast cancer cell line MCF-7 cultured in the presence of 6 μM 5Aza-dC, FIG. 2
Method: (§1) Two kinds of human-derived breast cancer cell lines (MCF-7, MDA-MB-468) and human-derived normal mammary gland epithelial cell (HMEC) were seeded at a density of 3 to 6×10^5 cells/10 cm plate, and cultured using RPMI or DMEM or an exclusively used medium. On the first day after seeding, 5-aza-2′-deoxytidine (manufactured by sigma) (hereinafter, referred to as 5Aza-dC) which is a methylation inhibitor was added to a medium to give the concentration of 0.5 to 6 μM. Twenty four hours after addition of 5Aza-Dc, the medium was exchanged with the aforementioned medium to which no 5Aza-dC was added, and culturing was continued. Then, on the third day after seeding, 5Aza-dC was added to the medium similarly. On the fourth day after seeding, cells were recovered, and a genomic DNA was extracted and recovered from the recovered cells according to the same manner as that of Example 1. Further, according to the same manner as that of Example 2, a RNA was extracted and recovered.
(§2) The extracted and recovered genomic DNA was treated with sodium bisulfite according to the same manner as that of Example 1. The resulting DNA was used as a template and PCR was performed using unmethylation-specific primers U2 and U3, or methylation-specific primers M3 and M4 shown below. […]

3OST2 gene [2] = experiment: Methylation-specific PCR of 3OST2 gene after culture with methylation inhibitor (MDA-MB-468); conditions: breast cancer cell line MDA-MB-468 cultured in the presence of 0.5 μM 5Aza-dC, FIG. 2
Method: as §1, §2

3OST2 gene [3] = experiment: RT-PCR of 3OST2 gene mRNA after culture with methylation inhibitor (MDA-MB-468); conditions: FIG. 3
Method: The thus obtained RNA was treated with DNaseI (Life Technologies), and this was used as a template and Superscript II (Life Technologies) was used to synthesize a cDNA according to a protocol attached to the enzyme. By performing PCR using the synthesized cDNA as a template and using 3OST2 S and 3OST2 A shown below as a primer pair, a DNA derived from a mRNA of 3OST2 gene was amplified. Thereupon, as a control by performing PCR using the aforementioned cDNA as a template and using GAPDH S and GAPDH A solution below as a primer pair, a DNA derived from a mRNA of a GAPDH gene was amplified.
A reaction solution PCR was used which was obtained by mixing 20 ng of a cDNA as a template, each 0.25 μl of two kinds of 25 pmol/μl aforementioned primer solution, 0.5 μl of 10 mM dNTP, 2.5 μl of 10× buffer (100 mM Tris-HCl pH 8.3, 500 mM KCl, 20 mM MgCl2) and 0.15 μl of a 5 U/μl thermostable DNA polymerase, and adding sterilized ultrapure water thereto to an amount of solution of 25 μl. When a DNA derived from mRNA of 3OST2 gene was amplified, PCR was performed at the conditions under which the reaction solution was retained at 94° C. for 10 minutes, 28 cycles of temperature maintenance were performed, each cycle was 30 seconds at 94° C., 30 seconds at 45° C. and 60 seconds at 72° C., and a temperature was maintained at 72° C. for 10 minutes. […]

Nc1ncn([C@H]2C[C@H](O)[C@@H](CO)O2)c(=O)n1 [5Aza-dC, 5-aza-2′-deoxytidine]
methylation status of cytosines 1260, 1271, 1281, 1410, 1418, 1423 and 1425 of SEQ ID NO: 1 (3OST2 gene) (3OST2 gene [1]): not methylated in genomic DNAs of approximately half of cells | methylation status of cytosines 1260, 1271, 1281, 1410, 1418, 1423 and 1425 of SEQ ID NO: 1 (3OST2 gene) (3OST2 gene [2]): not methylated in almost genomic DNAs | DNA (161 bp) derived from a mRNA of 3OST2 gene (expression) (3OST2 gene [3]; MAD-MB-468 cultured in the presence of 0.5 μM 5Aza-dC): detected | DNA (161 bp) derived from a mRNA of 3OST2 gene (expression) (3OST2 gene [3]; MAD-MB-468 cultured in the presence of 1 μM 5Aza-dC): detected
